US20010044404A1, “Cleaning process and composition” (3M Innovative Properties Company, priority 1995, published 2001)

What was measured:
[1] = Mineral oil removal from aluminum coupon, sonication in solvent; conditions: sonicated 1 minute
Procedure: In the following Examples and Comparative Examples, the cleaning ability of the alkoxy-substituted perfluorocompounds used in the cleaning process of the invention was further evaluated. A 1.28 cm×1.28 cm×0.225 cm wire-wrapped, aluminum coupon was coated with white heavy mineral oil (available from Aldrich Chemical) by immersing the coupon in an oil-filled beaker. The initial amount of the oil on the coupon was determined by weighing it on an analytical balance to the nearest 0.1 mg. The coupon was immersed in a container of solvent and sonicated for 1 minute at the indicated temperature (see Table 3 below for the solvents and temperatures used). The coupon was then weighed again, and the results were recorded in Table 3 as percent oil removal.

[2] = Stability in the presence of acid (96% sulfuric acid, GLC); format: physicochemical; conditions: neat ether; sulfuric acid as in Stability in the Presence of Acid section
Procedure: To assess hydrolytic stability under acidic conditions, C4F9OCH3 (15 g, 0.06 mole) was combined with sulfuric acid (10 g of 96% by weight, 0.097 mole) in a 50 mL flask containing a stir bar and fitted with a reflux condenser. The resulting mixture was stirred for 16 hours at room temperature, and then the resulting upper fluorochemical phase was separated from the resulting lower sulfuric acid phase. […] Chem. 49, 4007 (1984), which states that “[f]luorine atoms attached to carbon which also bears an alkyl ether group are known to be labile to electrophilic reagents. They are readily hydrolyzed in concentrated sulfuric acid, thus providing a route to some esters of fluoroacids.”

[3] = Open cup flash point ASTM D1310-86; format: physicochemical
Procedure: (§1) Various properties were measured for C4F9OCH3, CHClFCF2OCH3, and blends of each ether compound with cosolvent, trans-1,2-dichloroethylene (hereinafter, t-DCE) or n-butyl bromide, at various weight ratios.

[4] = Closed cup flash point ASTM D3278-96; format: physicochemical
Procedure: as §1

[5] = Solvency properties: largest normal hydrocarbon alkane soluble at 50 percent by volume
Procedure: A number of potential solvents were tested for their ability to dissolve hydrocarbons of increasing molecular weight according to the procedure described in U.S. Pat. No. 5,275,669 (Van Der Puy et al.), the description of which is incorporated herein by reference. The data shown in Table 1 were obtained by determining the largest normal hydrocarbon alkane which was soluble in a particular solvent at a level of 50 percent by volume. The numbers in the Table correspond with the carbon number of the largest alkane, e.g., “8” refers to octane. Measurements were made from room temperature up to the boiling point of the solvent. For comparative purposes, hydrofluorocarbons (HFCs) and perfluorocarbons (PFCs) were also tested using this method.
Using essentially the above-described method, the solvency properties of other alkoxy-substituted perfluorocompounds were tested at room temperature.

[6] = Rinse agent in co-solvent cleaning of solder flux; conditions: solvating agent 1 minute at about 55° C., then 30 seconds in boiling solvent
Procedure: The ability of alkoxy-substituted perfluorocompounds to function as a rinse agent in a co-solvent cleaning process was evaluated. The above-described aluminum coupon was coated with solder flux (available from Alpha Metals as Alpha 611 rosin, mildly activated flux) by immersing the coupon into a flux-filled beaker. The flux-coated coupon was then dried using a forced air convection drier. The initial amount of the flux on the coupon was determined by weighing it on an analytical balance to the nearest 0.1 mg. The coupon was immersed in a container of a mixed solvating agent comprising approximately 50% methyl decanoate and 50% dipropylene glycol di-n-butyl ether and was sonicated for 1 minute at approximately 55° C. The coupon was then immersed for 30 seconds into alkoxy-substituted perfluorocompound which had been heated to its boiling point. The coupon was weighed again, and the results were recorded in Table 5 below as percent oil removed from the coupon.

[7] = Perfluoropolyether oil removal in solvent vapor; conditions: Brayco 815Z; vapor over boiling liquid, 60 seconds
Procedure: The above-described aluminum coupon was dipped into Brayco 815Z perfluoropolyether oil (available from Castrol Inc., molecular weight of about 10,000) and then immersed in alkoxy-substituted perfluorocompound vapor (over the boiling liquid) for 60 seconds. The percent oil removal was determined in the above-described manner.

[8] = Paraffinic oil removal: solvating agent, then rinse in boiling solvent; conditions: methyl caproate/dipropylene glycol di-n-butyl ether 30 seconds, boiling rinse 30 seconds
Procedure: The above-described test coupon was dipped into a paraffinic oil comprising a mixture of linear and branched hydrocarbons (DuoSeal Pump Oil, available from Sargent Welch), was immersed in mixed solvating agent comprising approximately 50% methyl caproate and 50% dipropylene glycol di-n-butyl ether for 30 seconds, and was then rinsed in boiling alkoxy-substituted perfluorocompound for 30 seconds. The percent oil removal was determined in the above-described manner.

[9] = Pump oil removal with boiling mixed terpenes/perfluorocompound mixture; conditions: boiling mixture 40 volume % mixed terpenes, 60 volume % fluorinated component
Procedure: The above-described test coupon was dipped into DuoSeal Pump Oil (available from Sargent-Welch), was immersed in a boiling mixture of 40 volume % of a solvating agent comprising mixed terpenes having a boiling range of 243-274° C. and 60 volume % of alkoxy-substituted perfluorocompound (a cleaning composition of the invention), was cooled for 60 seconds, and was then immersed in mixture vapor for 30 seconds. The percent oil removal was determined in the above-described manner.

[10] = Pump oil removal with n-C6H14/perfluorocompound mixture at room temperature, ultrasonic; conditions: 40 volume % n-C6H14, 60 volume % fluorinated component, 60 seconds
Procedure: The above-described test coupon was dipped into DuoSeal Pump Oil (available from Sargent-Welch) and was then immersed in a mixture of 40 volume % n-C6H14 and 60 volume % alkoxy-substituted perfluorocompound (a cleaning composition of the invention) for 60 seconds at room temperature with ultrasonic agitation. The percent oil removal was determined in the above-described manner.

[11] = Pump oil removal in vapor of boiling n-C6H14/perfluorocompound mixture; conditions: vapor of boiling 40 volume % n-C6H14, 60 volume % fluorinated component; 60 seconds
Procedure: The above-described test coupon was dipped into DuoSeal Pump Oil (available from Sargent-Welch) and was then immersed in the vapor of a boiling mixture of 40 volume % n-C6H14 and 60 volume % alkoxy-substituted perfluorocompound (a cleaning composition of the invention), for 60 seconds. The percent oil removal was determined in the above-described manner.

[12] = Stability in the presence of base: aqueous NaOAc, fluoride ion measurement; format: physicochemical; conditions: 10 g with 10 g 0.1M NaOAc, 110° C., 16 hours
Procedure: To assess hydrolytic stability, a ten gram sample of alkoxy-substituted perfluorocompound was combined with 10 g of 0.1M NaOAc and sealed in a 2.54 cm (internal diameter) by 9.84 cm Monel™ 400 alloy (66% nickel, 31.5% copper, and 1.2% iron and several minor components) tube (available from Paar Instrument Co. of Moline, Ill. as Part Number 4713cm). The tube was heated at 110° C. in a forced air convection oven for 16 hours. After cooling to room temperature, a 1 mL sample of the tube contents was diluted with 1 mL of total ionic strength adjustment buffer (TISAB, available from Orion Research, Inc., a mixture of 1,2-cyclohexylene dinitrilotetraacetic acid, deionized water, sodium acetate, sodium chloride, and acetic acid). The concentration of fluoride ion (resulting from any reaction of the perfluorocompound with the aqueous NaOAc) was measured using an Orion Model 720A Coulombmeter with a F-specific electrode which had been previously calibrated using 0.5 and 500 ppm F^− solutions. Based on the measured fluoride ion concentration, the rate at which HF had been generated by reaction of the aqueous NaOAc with the perfluorocompound was calculated.

[13] = Flash point testing ASTM D3278-89; format: physicochemical
Procedure: The alkoxy-substituted perfluorocompounds C4F9OCH3, C4F9OC2H5, and c-C6F11OCH3 were tested for flash point by the standard method defined by ASTM D3278-89.

[14] = Fluorinated oil removal from aluminum coupon; conditions: Krytox 157FSM, room temperature
Procedure: Using essentially the same procedure as that described in Examples 8-10, the ability of the alkoxy-substituted perfluorocompounds to remove a fluorinated oil was evaluated. As in the previous Examples, a coupon was immersed in Krytox™ 157FSM perfluoropolyether oil having carboxylic acid end groups (available from DuPont), and the percent oil remaining after immersion in the solvent (at room temperature) was determined.

[15] = Ability to dissolve halogenated oils (miscibility); format: physicochemical; conditions: room temperature
Procedure: The ability of alkoxy-substituted perfluorocompounds to dissolve several halogenated oils was determined by adding a measured amount of oil to alkoxy-substituted perfluorocompound until the resulting mixture became turbid or phase-split. […] The results (shown in Table 12) indicate that alkoxy-substituted perfluorocompounds have very high ability to dissolve halogenated oils. Thus, the perfluorocompounds can be used as carrier solvents for halogenated oils in the deposition of coatings of such oils on substrate surfaces.

[16] = Mineral oil removal with boiling methyl decanoate/perfluorocompound mixture; conditions: boiling mixture 40 volume % methyl decanoate, 60 volume % perfluorocompound
Procedure: The above-described test coupon was dipped in white heavy mineral oil (available from Aldrich Chemical), was immersed in a boiling single-phase mixture of 40 volume % of a solvating agent comprising essentially methyl decanoate and 60 volume % of alkoxy-substituted perfluorocompound (a cleaning composition of the invention) for 60 seconds, was cooled for 60 seconds, and was then immersed in mixture vapor for 30 seconds. The percent oil removal was determined in the above-described manner.

[17] = 20 weight % ether, 80 % n-butyl bromide
[18] = 30 weight % ether, 70 % n-butyl bromide
[19] = 50 weight % ether, 50 % n-butyl bromide
[20] = 80 weight % ether, 20 % n-butyl bromide
[21] = Brayco 815Z Perfluoropolyether (MW about 10,000)
[22] = Chlorotrifluoroethylene Fluid (Inland 41 Vacuum Pump Oil)
[23] = Fomblin AM-2001 Functionalized Perfluoropolyether

Compound: FC(F)(Cl)C(F)(Cl)Cl [CF2ClCFCl2, reference compound]
- percent oil removal ([1]; 23 ° C.): 98.9%
- percent oil removal ([1]; 50 ° C.): 98.7%

Compound: COC(F)(F)C(F)Cl (centres unmarked) [CHClFCF2OCH3, 2-chloro-1,1,2-trifluoroethyl methyl ether, reference compound]
- Stability in Presence of Acid: conversion to ester [2]: 100%
- Open Cup Flash Point (ASTM D1310-86) ([3]; 20 weight % ether, 80 % t-DCE): 80 (27) ° F. (° C.)
- Open Cup Flash Point (ASTM D1310-86) ([3]; 50 weight % ether, 50 % t-DCE): 80 (27) ° F. (° C.)
- Open Cup Flash Point (ASTM D1310-86) ([3]; 80 weight % ether, 20 % t-DCE): 85 (29) ° F. (° C.)
- Open Cup Flash Point (ASTM D1310-86) ([3]; 100 weight % ether, 0 % t-DCE): 76 (24) ° F. (° C.)
- Closed Cup Flash Point (ASTM D3278-96) [4, 17]: 50 (7) ° F. (° C.)
- Closed Cup Flash Point (ASTM D3278-96) [4, 18]: 45 (10) ° F. (° C.)
- Closed Cup Flash Point (ASTM D3278-96) [4, 19]: 45 (7) ° F. (° C.)
- Closed Cup Flash Point (ASTM D3278-96) [4, 20]: 50 (10) ° F. (° C.)
- Closed Cup Flash Point (ASTM D3278-96) ([4]; 100 weight % ether, 0 % n-butyl bromide, raised to 140° F. (60° C.)): 45 (7) ° F. (° C.)
- Largest Carbon Number of Longest Hydrocarbon Alkane to Dissolve [5, 17]: 21
- Largest Carbon Number of Longest Hydrocarbon Alkane to Dissolve ([5]; 20 weight % ether, 80 % t-DCE): 27
- Largest Carbon Number of Longest Hydrocarbon Alkane to Dissolve [5, 18]: 21
- Largest Carbon Number of Longest Hydrocarbon Alkane to Dissolve [5, 19]: 20
- Largest Carbon Number of Longest Hydrocarbon Alkane to Dissolve ([5]; 50 weight % ether, 50 % t-DCE): 21
- Largest Carbon Number of Longest Hydrocarbon Alkane to Dissolve [5, 20]: 19
- Largest Carbon Number of Longest Hydrocarbon Alkane to Dissolve ([5]; 80 weight % ether, 20 % t-DCE): 19
- Largest Carbon Number of Longest Hydrocarbon Alkane to Dissolve ([5]; 100 weight % ether, 0 % n-butyl bromide): 18
- Largest Carbon Number of Longest Hydrocarbon Alkane to Dissolve ([5]; 100 weight % ether, 0 % t-DCE): 18

Compound: FC(F)C(F)(F)C(F)(F)C(F)(F)C(F)(F)C(F)(F)F [Example C6F13H, C6F13H, reference compound]
- percent oil removal ([1]; 23 ° C.): 71.7%
- percent oil removal ([1]; 50 ° C.): 86.8%
- % Removed [6]: 91.2%

Compound: FC(F)(F)C(F)(F)C(F)(F)C(F)(F)C(F)(F)C(F)(F)F [Example C6F14, C6F14, reference compound]
- percent oil removal ([1]; 23 ° C.): 54.9%
- percent oil removal ([1]; 50 ° C.): 67.6%
- % Removed [6]: 51.9%
- Percent Soil Removed [7]: 92.9%
- Percent Soil Removed [8]: 89.2%
- Percent Soil Removed [9]: 75.7%
- Percent Soil Removed [10]: 88.5%
- Percent Soil Removed [11]: 73.8%

Compound: COC1(F)C(F)(F)C(F)(F)C(F)(F)C(F)(F)C1(F)F [c-C6F11OCH3]
- HF Generation Rate [12]: 0.33 µg/g/h
- Flash point [13]: no flash point
- percent oil removal ([1]; 23 ° C.): 74.4%
- percent oil removal ([1]; 50 ° C.): 96.5%
- percent oil removal ([1]; 60 ° C.): 99.8%
- % Removed [14]: 96.5%
- % Removed [6]: 100.0%
- Miscibility with solute [15, 21]: Miscible (greater than or equal to 50 percent by volume solubility at room temperature)
- Miscibility with solute [15, 22]: Miscible (greater than or equal to 50 percent by volume solubility at room temperature)
- Miscibility with solute [15, 23]: Miscible (greater than or equal to 50 percent by volume solubility at room temperature)

Compound: FC(C(F)C(F)(F)C(F)(F)F)C(F)(F)F (centres unmarked) [reference compound]
- HF Generation Rate [12]: 42.9 µg/g/h

Compound: C4F9OC2H5 [Example C4F9OC2H5]
- HF Generation Rate [12]: 0.22 µg/g/h
- Flash point [13]: no flash point
- percent oil removal ([1]; 23 ° C.): 56.0%
- percent oil removal ([1]; 50 ° C.): 99.2%
- percent oil removal ([1]; 60 ° C.): 100.0%
- % Removed [14]: 99.3%
- % Removed [6]: 100.0%
- Percent Soil Removed [7]: 93.3%
- Percent Soil Removed [8]: 100.0%
- Percent Soil Removed [16]: 94.28%
- Percent Soil Removed [9]: 99.4%
- Percent Soil Removed [10]: 99.0%
- Percent Soil Removed [11]: 97.1%
- Miscibility with solute [15, 21]: Miscible (greater than or equal to 50 percent by volume solubility at room temperature)
- Miscibility with solute [15, 22]: Miscible (greater than or equal to 50 percent by volume solubility at room temperature)
- Miscibility with solute [15, 23]: Miscible (greater than or equal to 50 percent by volume solubility at room temperature)
